pIC50: −log10 of the molar value.
Legend:
JAK2 kinase domain = target: T1, JAK2 kinase domain (Homo sapiens, UniProt O60674); experiment: Biochemical assay for inhibitors of JAK kinase activity (JAK2, 33P-γ-ATP/dowex resin); details: JAK2 kinase domain 1 nM, 60 μM ATP
T1 construct: commercially available JAK2 kinase domain; purchased Invitrogen, Eugene, Oreg
Procedure, shortened: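 Human JAK2 (1 nM) phosphorylated peptide BioDBn*306 (64 μM) with 60 μM ATP plus 3 nM 33P-γ-ATP in HEPES pH 7.5/MgCl2/DTT buffer, 60 min at room temperature. Unreacted ATP captured by Dowex resin; supernatant β-counted. IC50 from sigmoidal fit of ten-point 1:3 dilution curves.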

Lyn full length = target: T2, Lyn full length (Homo sapiens, UniProt P07948); experiment: Biochemical assay for inhibitors of Lyn (Src family) kinase activity; details: Lyn full length 1 nM, 25 μM ATP
T2 construct: The assay has been performed using Lyn full length
Procedure, shortened: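 Radiometric Lyn assay: 1 nM full-length enzyme in 50 mM HEPES pH 7.5 with 25 μM ATP plus 33P-γ-ATP and 250 μM ABI 1 peptide, 60 min at room temperature. Unreacted ATP removed by Dowex resin; supernatant β-counted. IC50 from sigmoidal fit of ten-point 1:3 dilution curves.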

[1] = system: JAK2 dependent human megakaryoblastic leukemia cell line SET-2; experiment: Cell proliferation assay (CellTiter-Glo, 72 hours); format: cell-based; details: SET-2 cells
Procedure, shortened: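 About 5×10^3 SET-2 cells per well, in RPMI-1640 with 10% FBS, were exposed to inhibitor dilutions for 72 hours at 37 °C, 5% CO2. Viability read by CellTiter-Glo luminescence. IC50 from sigmoidal fitting of 8-point dilution curves.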

T1 sequence (O60674 849-1124 limits assumed): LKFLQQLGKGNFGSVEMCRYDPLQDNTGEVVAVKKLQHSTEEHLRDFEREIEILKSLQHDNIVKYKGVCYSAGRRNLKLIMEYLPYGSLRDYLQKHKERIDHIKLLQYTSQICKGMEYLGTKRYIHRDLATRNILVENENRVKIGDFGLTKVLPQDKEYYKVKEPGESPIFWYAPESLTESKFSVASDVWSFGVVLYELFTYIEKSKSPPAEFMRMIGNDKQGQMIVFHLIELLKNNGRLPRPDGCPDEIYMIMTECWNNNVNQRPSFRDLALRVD
T2 sequence (P07948 whole entry): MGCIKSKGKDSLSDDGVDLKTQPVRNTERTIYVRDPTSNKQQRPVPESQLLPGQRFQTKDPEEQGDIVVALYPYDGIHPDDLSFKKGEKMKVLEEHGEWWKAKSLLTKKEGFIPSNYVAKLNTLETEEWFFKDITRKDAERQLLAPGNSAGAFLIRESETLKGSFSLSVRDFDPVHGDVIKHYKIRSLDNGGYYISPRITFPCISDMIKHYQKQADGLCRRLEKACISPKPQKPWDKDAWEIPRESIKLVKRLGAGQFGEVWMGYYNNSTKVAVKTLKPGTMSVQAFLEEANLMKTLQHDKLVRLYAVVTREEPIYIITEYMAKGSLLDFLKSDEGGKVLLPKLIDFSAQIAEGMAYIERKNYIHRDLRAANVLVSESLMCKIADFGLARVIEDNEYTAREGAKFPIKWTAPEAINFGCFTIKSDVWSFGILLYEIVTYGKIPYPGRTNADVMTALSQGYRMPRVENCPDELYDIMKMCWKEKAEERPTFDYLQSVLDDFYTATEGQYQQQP

Compound	pIC50 (JAK2 kinase domain)	pIC50 (Lyn full length)	pIC50 ([1]; Homo sapiens)	pIC50 [1]
Cc1ccc(Cl)cc1-c1[nH]c(-c2ccnc(N)n2)c(C#Cc2ccc(N3CCNCC3)cc2)c1C(N)=O [compound 99, 5-(2-Aminopyrimidin-4-yl)-2-(5-chloro-2-methylphenyl)-4-{[4-(piperazin-1-yl)phenyl]ethynyl}-1H-pyrrole-3-carboxamide]	8.70	7.59	6.39	–
CCc1ccc(Cl)cc1-c1[nH]c(-c2ccnc(N)n2)c(C#Cc2ccccc2NCCN(C)C)c1C(N)=O [compound 101, 5-(2-Aminopyrimidin-4-yl)-2-(5-chloro-2-ethylphenyl)-4-[(2-{[2-(dimethylamino)ethyl]amino}phenyl)ethynyl]-1H-pyrrole-3-carboxamide]	8.30	7.60	6.70	–
CCc1ccc(Cl)cc1-c1[nH]c(-c2ccnc(N)n2)c(C#Cc2ccc(N3CCN(C)CC3)cc2)c1C(N)=O [compound 103, 5-(2-Aminopyrimidin-4-yl)-2-(5-chloro-2-ethylphenyl)-4-{[4-(4-methylpiperazin-1-yl)phenyl]ethynyl}-1H-pyrrole-3-carboxamide]	8.40	7.64	6.74	–
[(2-Aminophenyl)ethynyl]-4-(2-Amino-phenylethynyl)-5-(2-amino-pyrimidin-4-yl)-2-(5-chloro-2-methyl-phenyl)-1H-pyrrole-3-carboxamide [compound 74]	8.40	7.89	–	6.92

Further compounds by rising pIC50 (JAK2 kinase domain), results first:

pIC50 (JAK2 kinase domain)	pIC50 (Lyn full length)	pIC50 ([1]; Homo sapiens)	Compound	pIC50 [1]
7.44	6.68	5.79	Cc1ccc(Cl)cc1-c1[nH]c(-c2ccnc(N)n2)c(C#Cc2ccc(N3CCC(N4CCCC4)CC3)cc2)c1C(N)=O [compound 98, 5-(2-Aminopyrimidin-4-yl)-2-(5-chloro-2-methylphenyl)-4-({4-[4-(pyrrolidin-1-yl)piperidin-1-yl]phenyl}ethynyl)-1H-pyrrole-3-carboxamide]	–
9.00	8.22	6.62	CCc1ccc(Cl)cc1-c1[nH]c(-c2ccnc(N)n2)c(C#Cc2cccc(OC3CCN(C)CC3)c2)c1C(N)=O [compound 102, 5-(2-Aminopyrimidin-4-yl)-2-(5-chloro-2-ethylphenyl)-4-({3-[(1-methylpiperidin-4-yl)oxy]phenyl}ethynyl)-1H-pyrrole-3-carboxamide]	–
